pKd: −log10 of the molar value.
Columns and labels:
[1] = molecular target: T1, Death-associated protein kinase 1 (DAPK1) (Homo sapiens, UniProt P53355); test: fluorescent probe saturation binding (BC50), competed by RSV
T1 construct: catalytic domain, residues 1–285

[2] = molecular target: T1, Death-associated protein kinase 1 (DAPK1); test: malachite green intrinsic ATPase assay at […] ATP; format: biochemical

T1 sequence (P53355 1-285): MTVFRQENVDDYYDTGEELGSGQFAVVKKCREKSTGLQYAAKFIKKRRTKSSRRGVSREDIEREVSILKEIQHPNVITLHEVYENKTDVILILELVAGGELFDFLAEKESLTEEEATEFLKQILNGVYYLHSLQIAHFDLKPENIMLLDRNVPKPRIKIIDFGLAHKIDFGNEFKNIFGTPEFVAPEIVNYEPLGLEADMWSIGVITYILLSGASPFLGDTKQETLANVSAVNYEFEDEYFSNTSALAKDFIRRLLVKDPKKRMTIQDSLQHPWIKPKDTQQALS

SMILES	pKd [1]	malachite green intrinsic ATPase assay at 30 μM ATP [2]
O=S(=O)(O)c1cccc2cccc(Nc3ccccc3)c12 [ANS, 8-anilinonaphthalene-1-sulfonic acid]	5.14	–
O=c1c(O)c(-c2ccc(O)cc2)oc2cc(O)cc(O)c12 [KAE, kaempferol]	–	The inhibitory potency of KAE was higher than that of API

Source: paper PMC7792996, “Crystal structure of death-associated protein kinase 1 in complex with the dietary compound resveratrol” (IUCrJ, 2021)
